From PubChem BioAssay AID248 (DTP/NCI, 2004)
Inconclusive results and toxic doses are left out. Cut-off read from the data, not from the text of the source: active = T/C of 150% or more; inactive = T/C below 125%.

Tested on: L1210 leukemia ip in BDF1 mice, survival T/C
Assay: NCI In Vivo Anticancer Drug Screen. Data for tumor model L1210 Leukemia (intraperitoneal) in B6D2F1 (BDF1) mice
Conditions: endpoint: mean survival time, higher = longer survival
Summary of the method: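 In this screen, tumor-bearing mice given compound are compared to those given vehicle, and their survival values are reported as a treated-to-control quotient.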

[1] = dose: 100.0 mg/kg/injection, schedule: Q04DX003 (ip), vehicle: water
[2] = dose: 200.0 mg/kg/injection, schedule: Q04DX003 (ip), vehicle: water
[3] = dose: 100.0 mg/kg/injection, schedule: Q01DX001 (ip), vehicle: saline
[4] = dose: 200.0 mg/kg/injection, schedule: Q01DX001 (ip), vehicle: saline

Measured: T/C

O=C(/C=C/c1ccccc1)c1ccc2c(c1)OCO2
inactive: [1] 98 % of control | [2] 96 % of control | dose: 400.0 mg/kg/injection, schedule: Q04DX003 (ip), vehicle: water 94 % of control

Cc1ccc(/C(=N\N=C(N)N)C2CC2)cc1C
inactive: dose: 15.0 mg/kg/injection, schedule: Q01DX Z (ip), vehicle: methylcellulose (MC) 103 % of control | dose: 30.0 mg/kg/injection, schedule: Q01DX Z (ip), vehicle: methylcellulose (MC) 97 % of control | dose: 30.0 mg/kg/injection, schedule: Q01DX Z (oral), vehicle: methylcellulose (MC) 95 % of control | dose: 60.0 mg/kg/injection, schedule: Q01DX Z (ip), vehicle: methylcellulose (MC) 93 % of control | dose: 60.0 mg/kg/injection, schedule: Q01DX Z (oral), vehicle: methylcellulose (MC) 88 % of control

Cc1cc(C)cc(OC(=O)Nc2ccccc2C)c1
inactive: dose: 100.0 mg/kg/injection, schedule: Q04DX002 (ip), vehicle: saline with Tween-80 106 % of control | dose: 200.0 mg/kg/injection, schedule: Q04DX002 (ip), vehicle: saline with Tween-80 91 % of control

Clc1ccc2[nH]c(-c3ccccc3)c(-c3ccccc3)c2c1
inactive: [3] 92 % of control | dose: 100.0 mg/kg/injection, schedule: Q01DX009 (ip), vehicle: acetone 102 % of control | [4] 89 % of control | dose: 200.0 mg/kg/injection, schedule: Q01DX009 (ip), vehicle: acetone 102 % of control | dose: 400.0 mg/kg/injection, schedule: Q01DX001 (ip), vehicle: saline 96 % of control

CCOC(=O)c1c[nH]c2ccc(N(CCCl)CCCl)cc12
inactive: dose: 5.0 mg/kg/injection, schedule: Q01DX001 (ip), vehicle: carboxymethylcellulose (CMC) 98 % of control | dose: 10.0 mg/kg/injection, schedule: Q01DX001 (ip), vehicle: carboxymethylcellulose (CMC) 104 % of control | dose: 20.0 mg/kg/injection, schedule: Q01DX001 (oral), vehicle: carboxymethylcellulose (CMC) 98 % of control | dose: 40.0 mg/kg/injection, schedule: Q01DX001 (oral), vehicle: carboxymethylcellulose (CMC) 103 % of control | dose: 80.0 mg/kg/injection, schedule: Q01DX001 (oral), vehicle: carboxymethylcellulose (CMC) 103 % of control | dose: 160.0 mg/kg/injection, schedule: Q01DX001 (oral), vehicle: carboxymethylcellulose (CMC) 107 % of control | dose: 320.0 mg/kg/injection, schedule: Q01DX001 (oral), vehicle: carboxymethylcellulose (CMC) 115 % of control

Clc1ccc(C2=Nc3cccc4cccc(c34)N2)cc1Cl
inactive: dose: 15.0 mg/kg/injection, schedule: Q01DX Z (ip), vehicle: saline 97 % of control | dose: 30.0 mg/kg/injection, schedule: Q01DX Z (ip), vehicle: saline 105 % of control | dose: 60.0 mg/kg/injection, schedule: Q01DX Z (ip), vehicle: saline 100 % of control | dose: 60.0 mg/kg/injection, schedule: Q01DX Z (oral), vehicle: saline 91 % of control | dose: 120.0 mg/kg/injection, schedule: Q01DX Z (oral), vehicle: saline 96 % of control | dose: 240.0 mg/kg/injection, schedule: Q01DX Z (oral), vehicle: saline 94 % of control | dose: 480.0 mg/kg/injection, schedule: Q01DX Z (oral), vehicle: saline 98 % of control

COc1ccc(OC(=O)OCc2ccc(OC)c(OC)c2)cc1
inactive: dose: 100.0 mg/kg/injection, schedule: Q04DX003 (ip), vehicle: saline with Tween-80 102 % of control | dose: 200.0 mg/kg/injection, schedule: Q04DX003 (ip), vehicle: saline with Tween-80 96 % of control | dose: 400.0 mg/kg/injection, schedule: Q04DX003 (ip), vehicle: saline with Tween-80 96 % of control

O=C1CCC(=O)N1Nc1ccccc1
inactive: dose: 50.0 mg/kg/injection, schedule: Q01DX001 (ip), vehicle: carboxymethylcellulose (CMC) 104 % of control | dose: 100.0 mg/kg/injection, schedule: Q01DX001 (ip), vehicle: carboxymethylcellulose (CMC) 96 % of control | dose: 200.0 mg/kg/injection, schedule: Q01DX001 (ip), vehicle: carboxymethylcellulose (CMC) 102 % of control | dose: 400.0 mg/kg/injection, schedule: Q01DX001 (ip), vehicle: carboxymethylcellulose (CMC) 98 % of control

NS(=O)(=O)c1ccc(N=Nc2ncc(CC(NC3=CC(=O)C(=O)c4ccccc43)C(=O)O)[nH]2)cc1 (stereo not drawn)
inactive: dose: 50.0 mg/kg/injection, schedule: Q01DX009 (ip), vehicle: saline 96 % of control | dose: 100.0 mg/kg/injection, schedule: Q01DX009 (ip), vehicle: saline 96 % of control | dose: 200.0 mg/kg/injection, schedule: Q01DX009 (ip), vehicle: saline 105 % of control

CN(C)c1ccc(C(=O)O)cc1
inactive: dose: 100.0 mg/kg/injection, schedule: Q01DX009 (ip), vehicle: other 93 % of control | dose: 100.0 mg/kg/injection, schedule: Q04DX003 (ip), vehicle: other 104 % of control | dose: 200.0 mg/kg/injection, schedule: Q01DX009 (ip), vehicle: other 87 % of control | dose: 200.0 mg/kg/injection, schedule: Q04DX003 (ip), vehicle: other 107 % of control | dose: 400.0 mg/kg/injection, schedule: Q01DX009 (ip), vehicle: other 96 % of control | dose: 400.0 mg/kg/injection, schedule: Q04DX003 (ip), vehicle: other 95 % of control

CC(=O)OC1CCC2(C)C(=CCC3C2CCC2(C)C3CC3C(c4ccccc4)=NN(c4ccccc4)C32C(C)=O)C1 (stereo not drawn)
inactive: dose: 100.0 mg/kg/injection, schedule: Q04DX002 (ip), vehicle: Klucel (hydroxypropylcellulose) (HPC) 92 % of control | dose: 200.0 mg/kg/injection, schedule: Q04DX002 (ip), vehicle: Klucel (hydroxypropylcellulose) (HPC) 103 % of control | dose: 400.0 mg/kg/injection, schedule: Q04DX002 (ip), vehicle: Klucel (hydroxypropylcellulose) (HPC) 92 % of control

CCN(CC)c1ccc(/C=N/N=C(N)N)cc1
inactive: dose: 3.8 mg/kg/injection, schedule: Q01DX Z (ip), vehicle: other 109 % of control | dose: 7.5 mg/kg/injection, schedule: Q01DX Z (ip), vehicle: other 88 % of control | dose: 15.0 mg/kg/injection, schedule: Q01DX Z (ip), vehicle: other 97 % of control

O=C(C[n+]1ccc2ccccc2c1)c1ccc(-c2ccccc2)cc1
inactive: dose: 25.0 mg/kg/injection, schedule: Q04DX003 (ip), vehicle: saline 98 % of control | dose: 50.0 mg/kg/injection, schedule: Q04DX003 (ip), vehicle: saline 105 % of control | [3] 94 % of control | dose: 100.0 mg/kg/injection, schedule: Q04DX003 (ip), vehicle: saline 100 % of control | [4] 101 % of control

COc1c2c(c3ccccc3c1OC(C)=O)OC(C)(C)CC2
inactive: dose: 100.0 mg/kg/injection, schedule: Q01DX001 (ip), vehicle: saline with Tween-80 88 % of control | dose: 200.0 mg/kg/injection, schedule: Q01DX001 (ip), vehicle: saline with Tween-80 92 % of control | dose: 400.0 mg/kg/injection, schedule: Q01DX001 (ip), vehicle: saline with Tween-80 90 % of control

CCc1ccncc1
inactive: [3] 101 % of control | [4] 88 % of control

Cc1cc2c(N)[nH]c(=O)nc2s1
inactive: [1] 90 % of control | [2] 93 % of control
